Data taken from ChEMBL document CHEMBL2150992, “Synthesis of quinoline derivatives for fluorescent imaging certain bacteria” (Bioorg Med Chem Lett, 2012).
Activity calls are given as the source filed them. The rule behind the calls is not given here.

The molecules below were run on Bacillus subtilis (assay: Binding affinity to Bacillus subtilis at 0.0781 mM after 1 day by fluorescence microscopy).
Format: functional, organism-based
`O=C1CCCN1c1cc(-c2cc3ccccc3c3ccccc23)nc2ccc(Cl)cc12` was tested, and the Activity was “Active”.
In the case of `COc1ccc2nc(-c3cc4ccccc4c4ccccc34)cc(N3CCCC3=O)c2c1`, the Activity is reported as “Active”.
`O=C1CCCN1c1cc(-c2cc3ccccc3c3ccccc23)nc2ccccc12` was tested, and the Activity was “Active”.
In the case of `CCCCc1ccc2nc(-c3cc4ccccc4c4ccccc34)cc(N3CCCC3=O)c2c1`, the Activity is reported as “Active”.
For `N#Cc1ccc2nc(-c3cc4ccccc4c4ccccc34)cc(N3CCCC3=O)c2c1`, the Activity was “Active”.
For `O=C1CCCN1c1cc(-c2cc3ccccc3c3ccccc23)nc2ccc(Br)cc12`, the Activity was “Active”.

Each molecule was assayed on Escherichia coli (assay: Binding affinity to Escherichia coli at 0.0781 mM after 1 day by fluorescence microscopy).
Format: functional, organism-based
In the case of `O=C1CCCN1c1cc(-c2cc3ccccc3c3ccccc23)nc2ccc(Cl)cc12`, the Activity is reported as “Active”.
For `COc1ccc2nc(-c3cc4ccccc4c4ccccc34)cc(N3CCCC3=O)c2c1`, the Activity was “Active”.
`O=C1CCCN1c1cc(-c2cc3ccccc3c3ccccc23)nc2ccccc12` was tested, and the Activity was “Active”.
For `CCCCc1ccc2nc(-c3cc4ccccc4c4ccccc34)cc(N3CCCC3=O)c2c1`, the Activity was “Active”.
With `N#Cc1ccc2nc(-c3cc4ccccc4c4ccccc34)cc(N3CCCC3=O)c2c1` the Activity was “Active”.
In the case of `O=C1CCCN1c1cc(-c2cc3ccccc3c3ccccc23)nc2ccc(Br)cc12`, the Activity is reported as “Active”.

What follows are molecules tested on Escherichia coli (assay: Binding affinity to Escherichia coli at 0.0781 mM after 10 mins by fluorescence microscopy).
Format: functional, organism-based
With `O=C1CCCN1[C@H]1C[C@@H](c2cc3ccccc3c3ccccc23)Nc2ccc(Cl)cc21` (relative stereo) the Activity was “inactive”.
With `O=C1CCCN1[C@H]1C[C@@H](c2cc3ccccc3c3ccccc23)Nc2ccc(Br)cc21` (relative stereo) the Activity was “Active”.
For `c1ccc2c(c1)N[C@@H](c1cc3ccccc3c3ccccc13)C1CCCOC21` (stereo not given in full), the Activity was “inactive”.
In the case of `O=C1CCCN1c1cc(-c2cc3ccccc3c3ccccc23)nc2ccc(Cl)cc12`, the Activity is reported as “Active”.
For `COc1ccc2nc(-c3cc4ccccc4c4ccccc34)cc(N3CCCC3=O)c2c1`, the Activity was “Active”.
`O=C1CCCN1c1cc(-c2cc3ccccc3c3ccccc23)nc2ccccc12` was tested, and the Activity was “Active”.
With `CCCCc1ccc2nc(-c3cc4ccccc4c4ccccc34)cc(N3CCCC3=O)c2c1` the Activity was “inactive”.
For `c1ccc2c(c1)N[C@H](c1cc3ccccc3c3ccccc13)C1CCCOC21` (stereo not given in full), the Activity was “inactive”.
For `COc1ccc2c(c1)[C@@H](N1CCCC1=O)C[C@@H](c1cc3ccccc3c3ccccc13)N2` (relative stereo), the Activity was “Active”.
In the case of `N#Cc1ccc2c(c1)[C@@H](N1CCCC1=O)C[C@@H](c1cc3ccccc3c3ccccc13)N2` (mixture of isomers), the Activity is reported as “inactive”.
In the case of `N#Cc1ccc2nc(-c3cc4ccccc4c4ccccc34)cc(N3CCCC3=O)c2c1`, the Activity is reported as “Active”.
With `O=C1CCCN1c1cc(-c2cc3ccccc3c3ccccc23)nc2ccc(Br)cc12` the Activity was “inactive”.
`O=C1CCCN1[C@H]1C[C@@H](c2cc3ccccc3c3ccccc23)Nc2ccccc21` (relative stereo) was tested, and the Activity was “inactive”.
With `CCCCc1ccc2c(c1)[C@@H](N1CCCC1=O)C[C@@H](c1cc3ccccc3c3ccccc13)N2` (relative stereo) the Activity was “inactive”.

These molecules were tested on Staphylococcus aureus (assay: Binding affinity to Staphylococcus aureus at 0.0781 mM after 10 mins by fluorescence microscopy).
Format: functional, organism-based
With `O=C1CCCN1[C@H]1C[C@@H](c2cc3ccccc3c3ccccc23)Nc2ccc(Cl)cc21` (relative stereo) the Activity was “inactive”.
With `O=C1CCCN1[C@H]1C[C@@H](c2cc3ccccc3c3ccccc23)Nc2ccc(Br)cc21` (relative stereo) the Activity was “inactive”.
In the case of `c1ccc2c(c1)N[C@@H](c1cc3ccccc3c3ccccc13)C1CCCOC21` (stereo not given in full), the Activity is reported as “Active”.
`O=C1CCCN1c1cc(-c2cc3ccccc3c3ccccc23)nc2ccc(Cl)cc12` was tested, and the Activity was “Active”.
With `COc1ccc2nc(-c3cc4ccccc4c4ccccc34)cc(N3CCCC3=O)c2c1` the Activity was “inactive”.
In the case of `O=C1CCCN1c1cc(-c2cc3ccccc3c3ccccc23)nc2ccccc12`, the Activity is reported as “Active”.
In the case of `CCCCc1ccc2nc(-c3cc4ccccc4c4ccccc34)cc(N3CCCC3=O)c2c1`, the Activity is reported as “Active”.
In the case of `c1ccc2c(c1)N[C@H](c1cc3ccccc3c3ccccc13)C1CCCOC21` (stereo not given in full), the Activity is reported as “Active”.
In the case of `COc1ccc2c(c1)[C@@H](N1CCCC1=O)C[C@@H](c1cc3ccccc3c3ccccc13)N2` (relative stereo), the Activity is reported as “Active”.
In the case of `N#Cc1ccc2c(c1)[C@@H](N1CCCC1=O)C[C@@H](c1cc3ccccc3c3ccccc13)N2` (mixture of isomers), the Activity is reported as “Active”.
In the case of `N#Cc1ccc2nc(-c3cc4ccccc4c4ccccc34)cc(N3CCCC3=O)c2c1`, the Activity is reported as “Active”.
`O=C1CCCN1c1cc(-c2cc3ccccc3c3ccccc23)nc2ccc(Br)cc12` was tested, and the Activity was “Active”.
With `O=C1CCCN1[C@H]1C[C@@H](c2cc3ccccc3c3ccccc23)Nc2ccccc21` (relative stereo) the Activity was “Active”.
`CCCCc1ccc2c(c1)[C@@H](N1CCCC1=O)C[C@@H](c1cc3ccccc3c3ccccc13)N2` (relative stereo) was tested, and the Activity was “Active”.

These molecules were tested on Staphylococcus aureus (assay: Binding affinity to Staphylococcus aureus at 0.0781 mM after 1 day by fluorescence microscopy).
Format: functional, organism-based
`O=C1CCCN1c1cc(-c2cc3ccccc3c3ccccc23)nc2ccc(Cl)cc12` was tested, and the Activity was “Active”.
`COc1ccc2nc(-c3cc4ccccc4c4ccccc34)cc(N3CCCC3=O)c2c1` was tested, and the Activity was “Active”.
`O=C1CCCN1c1cc(-c2cc3ccccc3c3ccccc23)nc2ccccc12` was tested, and the Activity was “Active”.
For `CCCCc1ccc2nc(-c3cc4ccccc4c4ccccc34)cc(N3CCCC3=O)c2c1`, the Activity was “Active”.
With `N#Cc1ccc2nc(-c3cc4ccccc4c4ccccc34)cc(N3CCCC3=O)c2c1` the Activity was “Active”.
For `O=C1CCCN1c1cc(-c2cc3ccccc3c3ccccc23)nc2ccc(Br)cc12`, the Activity was “Active”.

What follows are molecules tested on Bacillus subtilis (assay: Binding affinity to Bacillus subtilis at 0.0781 mM after 10 mins by fluorescence microscopy).
Format: functional, organism-based
`O=C1CCCN1[C@H]1C[C@@H](c2cc3ccccc3c3ccccc23)Nc2ccc(Cl)cc21` (relative stereo) was tested, and the Activity was “Active”.
`O=C1CCCN1[C@H]1C[C@@H](c2cc3ccccc3c3ccccc23)Nc2ccc(Br)cc21` (relative stereo) was tested, and the Activity was “inactive”.
`c1ccc2c(c1)N[C@@H](c1cc3ccccc3c3ccccc13)C1CCCOC21` (stereo not given in full) was tested, and the Activity was “inactive”.
With `O=C1CCCN1c1cc(-c2cc3ccccc3c3ccccc23)nc2ccc(Cl)cc12` the Activity was “Active”.
For `COc1ccc2nc(-c3cc4ccccc4c4ccccc34)cc(N3CCCC3=O)c2c1`, the Activity was “Active”.
For `O=C1CCCN1c1cc(-c2cc3ccccc3c3ccccc23)nc2ccccc12`, the Activity was “Active”.
For `CCCCc1ccc2nc(-c3cc4ccccc4c4ccccc34)cc(N3CCCC3=O)c2c1`, the Activity was “Active”.
With `c1ccc2c(c1)N[C@H](c1cc3ccccc3c3ccccc13)C1CCCOC21` (stereo not given in full) the Activity was “inactive”.
For `COc1ccc2c(c1)[C@@H](N1CCCC1=O)C[C@@H](c1cc3ccccc3c3ccccc13)N2` (relative stereo), the Activity was “Active”.
For `N#Cc1ccc2c(c1)[C@@H](N1CCCC1=O)C[C@@H](c1cc3ccccc3c3ccccc13)N2` (mixture of isomers), the Activity was “Active”.
In the case of `N#Cc1ccc2nc(-c3cc4ccccc4c4ccccc34)cc(N3CCCC3=O)c2c1`, the Activity is reported as “Active”.
With `O=C1CCCN1c1cc(-c2cc3ccccc3c3ccccc23)nc2ccc(Br)cc12` the Activity was “Active”.
With `O=C1CCCN1[C@H]1C[C@@H](c2cc3ccccc3c3ccccc23)Nc2ccccc21` (relative stereo) the Activity was “Active”.
With `CCCCc1ccc2c(c1)[C@@H](N1CCCC1=O)C[C@@H](c1cc3ccccc3c3ccccc13)N2` (relative stereo) the Activity was “inactive”.
